Drawing on ChEMBL document CHEMBL4354786, “Prodrug strategies for targeted therapy triggered by reactive oxygen species” (Medchemcomm, 2019), this text covers Drug metabolism for 2 compounds.

This test in a line: Drug metabolism in pH 7.5 HEPES buffer assessed as hydrolysis after 24 hrs.

For the compound `O=C(O)c1ccc(S(=O)(=O)On2c(C(=O)NCc3ccc(-c4ccccc4)cc3)cccc2=O)cc1`, the Drug metabolism amounted to 100%.

For the compound `O=C(NCc1ccc(-c2ccccc2)cc1)c1cccc(=O)n1OS(=O)(=O)c1ccccc1`, the Drug metabolism worked out at 100%.
